# Data reported in patent US9637447B2, “Lauflumide and the enantiomers thereof, method for preparing same and therapeutic uses thereof” (priority 2011, dated 2017).
# Read-outs that look alike come from different tables or passages of the source.
# What was measured:
# young Wistar rats [1] = test: T-maze test of waiting ability (ADHD model, impulsivity); format: in vivo, rat; details: for waiting ability in the T-maze test compared to the control: administered before the test, mazindol 1, 3, 10 mg/kg intraperitoneally, lauflumide 64, 128 mg/kg orally, D-lauflumide 64, 128, 256 mg/kg orally; for improving waiting ability, effectiveness versus methylphenidate and d-amphetamine / improving waiting ability, effectiveness versus modafinil: T-maze; for improving waiting ability, effectiveness versus methylphenidate and d-amphetamine: methylphenidate 3 mg/kg, d-amphetamine 1 mg/kg intraperitoneally; for improving waiting ability, effectiveness versus modafinil: modafinil 64 and 128 mg/kg orally
# Description: The test of waiting ability in a T-maze consists in offering a rat a choice between a quick and immediate food reward and a large but delayed reward. In adult Wistar rats, numerous antidepressants such as serotonin or noradrenalin reuptake inhibitors increase the number of choices for the large but delayed reward, indicating an improvement in waiting ability, i.e., a decrease in impulsivity.
# The goal of the present study is to examine whether lauflumide in the form of its racemic mixture or its D form ((+) enantiomer), administered in 3 doses before the test, improves waiting ability in young Wistar rats subjected to the T-maze test. An improvement in waiting ability by this compound would indicate that this compound reduces impulsivity and, consequently, could be useful in the treatment of ADHD. Methylphenidate and d-amphetamine are used as a reference product in the same experiment.
# Male Wistar AF rats (Centre d′Elevage Rene Janvier, France) are used, aged 22 days at the beginning of the experiment and between 30 and 42 days at the time the molecules are administered.
# The experiments were carried out in two identical T-mazes (FIG. 1) made of opaque gray plastic tubes (inner diameter: 7.5 cm), consisting of a starting alley (30 cm long), a transparent plastic box, (10 cm wide, 10 cm deep and 10 cm high) and two arms (35 cm long) each leading to a rectangular black plastic box (18 cm wide, 30 cm deep, 10 cm high). The removable, gray plastic guillotine doors can be inserted in vertical slots located at the entrance to the starting alley and at the end of each arm. One of the goal boxes (left or right, depending on the rat) is continuously provided with a large reward, the other with a small reward. The large and small rewards consist of 5 and 1 pellets, respectively (20 mg, Technical & Scientific Equipment GMBH, Germany). The pellets are placed in a translucent cup before each test.
# The T-maze test is a validated test which makes it possible, by extrapolation to man, to verify the effectiveness of pharmacological agents effective in ADHD.
# 1st phase: habituation. The animals are first subjected to 2 to 6 habituation sessions of 5 minutes each. The rat is gently placed in the starting alley, which is then closed off by a guillotine door inserted in the slot (reference c0 in FIG. 1). The animal is allowed to freely explore the device and to eat the rewards placed in the cups.
# 2nd phase: pre-training. A door is placed in slot c2 near each goal box and then the rat is placed in the starting alley. When it enters one of the two arms, a door is inserted behind it in slot c1 near the choice point and the door placed in slot c2 is removed. Once the animal enters the goal box, the door is replaced in slot c2. The rat is removed from the goal box as soon as it eats the pellets. The animal is then returned to its cage for 2 to 3 minutes. One to three times per day, each rat is subjected to five test sessions. In four to 12 sessions, the rat chooses the arm leading to the large reward in more than 80% of the tests. The training phase then begins.
# 3rd phase: training. During training the rats 1 to 4 times/day undergo sessions of 5 tests during which a delay is introduced before access to the large reward is granted. After a door is placed in slot c2 near each goal box, the rat is placed in the starting alley. When it enters one of the two arms, a second door is inserted behind it in slot c1 near the choice point, so that the rat choosing the training arm with the large reward can be held in this arm for 30 seconds—the waiting period—before having access to the reinforcement. If not, if the animal chooses the arm leading to the small reward, the door placed in slot c2 is immediately removed, allowing the animal to enter the goal box. The testing of the drugs begins when the animal chooses the large reward delayed by 30 seconds in 2 tests in 5 (or fewer) during two consecutive sessions and in 1 test in 5 (or fewer) in the following session. […]
# [2] = Comparative effectiveness stated in the description (no method given)
# young Wistar rats [3] = details: cited from earlier work; for waiting ability in the T-maze test: young rats
smiles,measurement,setting,value
NC(=O)C[S+]([O-])C(c1ccc(F)cc1)c1ccc(F)cc1 (racemic) [Lauflumide],waiting ability in the T-maze test compared to the control,young Wistar rats [1],improve waiting ability
same,effectiveness relative to adrafinil,[2],20 times
same,effectiveness relative to modafinil,[2],4 times
"CC(N)Cc1ccccc1 (racemic) [amphetamine, D,L-amphetamine]",waiting ability in the T-maze test,young Wistar rats [3],improved waiting ability
NC(=O)C[S@@+]([O-])C(c1ccc(F)cc1)c1ccc(F)cc1 [D-Lauflumide],"improving waiting ability, effectiveness versus methylphenidate and d-amphetamine",young Wistar rats [1],at least as effective as methylphenidate and d-amphetamine
same,"improving waiting ability, effectiveness versus modafinil",young Wistar rats [1],more effective than modafinil
same,waiting ability in the T-maze test compared to the control,young Wistar rats [1],improve waiting ability
same,effectiveness versus the racemic mixture of lauflumide,[2],more effective than the racemic mixture of lauflumide
"OC1(c2ccc(Cl)cc2)c2ccccc2C2=NCCN21 (centres unmarked) [Mazindol, mazindol]","improving waiting ability, effectiveness versus methylphenidate and d-amphetamine",young Wistar rats [1],at least as effective as methylphenidate and d-amphetamine
same,"improving waiting ability, effectiveness versus modafinil",young Wistar rats [1],more effective than modafinil
same,waiting ability in the T-maze test compared to the control,young Wistar rats [1],improve waiting ability
CNCC[C@@H](Oc1ccccc1C)c1ccccc1 [atomoxetine],waiting ability in the T-maze test,young Wistar rats [3],improved waiting ability
Clc1cccc(Cl)c1N=C1NCCN1 [clonidine],waiting ability in the T-maze test,young Wistar rats [3],improved waiting ability
CNCCCN1c2ccccc2CCc2ccccc21 [desipramine],waiting ability in the T-maze test,young Wistar rats [3],improved waiting ability
COC(=O)C(c1ccccc1)C1CCCCN1 (centres unmarked) [methylphenidate],number of choices for the large but delayed reward,"young Wistar rats [3]; adult Wistar rats, spontaneously hypertensive rats (SHR) and Wistar Kyoto (WKY) rats",not
same,number of choices for the large but delayed reward,young Wistar rats [3]; young Wistar rats,increases the number of choices for the large but delayed reward
same,waiting ability in the T-maze test,young Wistar rats [3],improved waiting ability
